Measurements as given in patent publication US20010006969A1, “PYRIMIDINE NUCLEUS-CONTAINING COMPOUND AND A MEDICAMENT CONTAINING THE SAME FOR A BLOOD OXYGEN PARTIAL PRESSURE AMELIORATION, AND A METHOD FOR PREPARING THE SAME” (priority 1997, published 2001).

Key:
[1] = tested on: hypoxemic model rats; assay: Determination of oxygen partial pressure increasing action (arterial blood PaO2 gain in hypoxemic model rats); type: in vivo, Sprague-Dawley male rats; conditions: urethane-anesthetized rats, i.v. continuously 0.1 mg/kg/min, PaO2 measured 10 minutes after completion of administration, gain before vs after
Protocol: Determination of oxygen partial pressure increasing action
Actions of the quinazoline derivatives of the present invention to increase oxygen partial pressure in the arterial blood were determined according to the following method:
Sprague-Dawley male rats having body weights of about 250 g were anesthetized (i.p.) with urethane and cannulated to the respiratory tracts, femoral arteries and femoral veins. An olive oil-charcoal powder suspension (10 mg/ml) was introduced in an amount of 0.8 ml/kg through the respiratory tract cannulae into the lungs to cause the rats to hypoxic state (PaO2≦75 mmHg). The quinazoline derivatives listed in Table 1 were intravenously administered to these hypoxemic model rats continuously at a rate of 0.1 mg/kg/min, and arterial blood oxygen partial pressure value (PaO2) of each rat was measured at the time point of 10 minutes after completion of administration using a blood gas analyzer (Ciba Corning 800 series). Gains (APaO2) were determined based on results of PaO2 measurement made before and after administration of the test compounds.
Actions of the thienopyrimidine derivatives of the present invention to increase oxygen partial pressure in the arterial blood were determined according to the following method:
Sprague-Dawley male rats having body weights of about 250 g were anesthetized (i.p.) with urethane and cannulated to the respiratory tracts, femoral arteries and femoral veins. An olive oil-charcoal powder suspension (10 mg/ml) was introduced in an amount of 0.8 ml/kg through the respiratory tract cannulae into the lungs to cause the rats to be under hypoxic state (PaO2 Δ 75 mmHg). The thienopyrimidine derivatives listed in Table 2 were intravenously administered to these hypoxemic model rats continuously at a rate of 0.1 mg/kg/min, and arterial blood oxygen partial pressure value (PaO2) of each rat was measured at the time point of 10 minutes after completion of administration using a blood gas analyzer (Ciba Corning 800 series). Gains (ΔPaO2) were determined based on results of PaO2 measurement made before and after administration of the test compounds.

[2] = thienopyrimidine derivatives, hypoxic state (PaO2 Δ 75 mmHg) by olive oil-charcoal powder suspension
[3] = quinazoline derivatives, hypoxic state (PaO2≦75 mmHg) by olive oil-charcoal powder suspension

Row | Compound | ΔPaO2 [1, 2] [mmHg] | melting point | ΔPaO2 [1, 3] [mmHg]
1 | C=CCNc1nc(NCC=C)c2scc(CC)c2n1 [Example 103, 2,4-Diallylamino-7-ethylthieno[3,2-d]pyrimidine] | 30 | 55 °C | –
2 | C=CCNc1nc(NC)c2cc([N+](=O)[O-])ccc2n1 [Example 21, 2-Allylamino-4-methylamino-6-nitroquinazoline] | – | 211 to 212 °C | 26
3 | CCCCNc1nc(NCC=C(C)C)c2cc([N+](=O)[O-])ccc2n1 [Example 60, 2-Butylamino-4-(3-methyl-2-butenylamino)-6-nitroquinazoline] | – | 171 to 172 °C | 27
4 | C=CCNc1nc(NCC=C)c2scc(C)c2n1 [Example 66, 2,4-Diallylamino-7-methylthieno[3,2-d]pyrimidine] | 26 | 77 to 80 °C | –
5 | C=CCNc1nc(NCC=C)c2cc([N+](=O)[O-])ccc2n1 [Example 3, 2,4-Diallylamino-6-nitroquinazoline] | – | 198 to 200 °C (dec.) | 28
6 | C=CCNc1nc(NCC)c2cc([N+](=O)[O-])ccc2n1 [Example 22, 2-Allylamino-4-ethylamino-6-nitroquinazoline] | – | 215 to 216 °C | 27
7 | C=CCNc1nc(NCc2ccccc2)nc2ccc([N+](=O)[O-])cc12 [Example 6, 4-Allylamino-2-benzylamino-6-nitroquinazoline] | – | 216 to 217 °C | 48
8 | C=CCNc1nc(NC(C)C)nc2ccc([N+](=O)[O-])cc12 [Example 18, 4-Allylamino-2-isopropylamino-6-nitroquinazoline] | – | 150 to 151 °C | 30
9 | C=CCNc1nc(NC(C)(C)C)c2scc(C)c2n1 [Example 68, 2-Allylamino-4-t-butylamino-7-methylthieno[3,2-d] pyrimidine] | 31 | 89 to 90 °C | –
10 | C=CCNc1nc(NCCC)c2cc([N+](=O)[O-])ccc2n1 [Example 10, 2-Allylamino-6-nitro-4-propylaminoquinazoline] | – | 211 to 212 °C | 34
11 | C=CCNc1nc(NC23CC4CC(CC(C4)C2)C3)c2scc(C)c2n1 [Example 79, 4-(1-Adamantylamino)-2-allylamino-7-methylthieno[3,2-d] pyrimidine] | 36 | 107 to 109 °C | –
